Laboratory results published in PMC9845116 (Saudi Pharmaceutical Journal : SPJ, 2022).
Where two headings read alike, the source gives them in different places.

Assays:
Type in all cases: cell-based
A549 = assay: MTT cell viability assay, A549; conditions: read-out: IC50(μM) A549
Hela = assay: MTT cell viability assay, Hela; conditions: 48 h
HepG2 = assay: MTT cell viability assay, HepG2; conditions: read-out: IC50(μM) HepG2
MCF-7 = assay: MTT cell viability assay, MCF-7
[1] = Homo sapiens, HeLa, read-out: IC50(μM) Hela, MTT, 48 h, Hela
[2] = Homo sapiens, MCF7, 48 h, read-out: IC50(μM) MCF-7, MTT, 48 h, MCF-7
[3] = read-out: IC50(μM) Hela, MTT, Hela
[4] = read-out: IC50(μM) MCF-7, MTT, 48 h, MCF-7

IC50 (A549; Homo sapiens, A549, 48 h) [µM]	IC50 (Hela; [1]) [µM]	IC50 (HepG2; Homo sapiens, HepG2, 48 h) [µM]	IC50 (MCF-7; [2]) [µM]	IC50 (A549; MTT, 48 h, A549) [µM]	IC50 (Hela; [3]) [µM]	IC50 (HepG2; MTT, 48 h, HepG2) [µM]	IC50 (MCF-7; [4]) [µM]	Compound
18.4 ± 0.65	18.1 ± 1.04	15.1 ± 0.62	12.6 ± 0.73	–	–	–	–	COc1cc(OC)c(C(=O)/C=C/c2cc3cc(F)ccc3[nH]c2=O)c(OC)c1 [B16, (E)-6-fluoro-3-(3-oxo-3-(2,4,6-trimethoxyphenyl)prop-1-en-1-yl)quinolin-2(1H)-one]
–	–	–	–	70.9 ± 1.82	38.8 ± 1.21	40.7 ± 1.29	24.7 ± 0.94	(E)-3-(3-hydroxy-4-methoxyphenyl)-1-(2,4,6-trimethoxyphenyl)prop-2-en-1-one [A5]
> 100	35 ± 1.17	51.1 ± 2.1	87.8 ± 2.7	–	–	–	–	COc1cc(OC)c(C(=O)/C=C/c2ccc(OCc3ccsc3)cc2)c(OC)c1 [C7, (E)-3-(4-(thiophen-3-ylmethoxy)phenyl)-1-(2,4,6-trimethoxyphenyl)prop-2-en-1-one]
> 100	> 100	> 100	> 100	–	–	–	–	COc1cc(OC)c(C(=O)/C=C/c2ccc(OCc3ccc4ccccc4c3)cc2)c(OC)c1 [C8, (E)-3-(4-(naphthalen-2-ylmethoxy)phenyl)-1-(2,4,6-trimethoxyphenyl)prop-2-en-1-one]
63.3 ± 1.41	> 100	> 100	> 100	–	–	–	–	COc1cc(OC)c(C(=O)/C=C/c2c(OC)cc(OC)c(C)c2OC)c(OC)c1 [A6, (E)-3-(2,4,6-trimethoxy-3-methylphenyl)-1-(2,4,6-trimethoxyphenyl)prop-2-en-1-one]
> 100	> 100	> 100	> 100	–	–	–	–	COc1cc(OC)c(C(=O)/C=C/c2ccc(OCc3ccc(Br)cc3)cc2)c(OC)c1 [C5, (E)-3-(4-((4-bromobenzyl)oxy)phenyl)-1-(2,4,6-trimethoxyphenyl)prop-2-en-1-one]
20.4 ± 0.67	4.91 ± 0.3	18 ± 0.62	16 ± 0.56	–	–	–	–	COc1cc(OC)c(C(=O)/C=C/c2cc3cc(C)ccc3[nH]c2=O)c(OC)c1 [B15, (E)-6-methyl-3-(3-oxo-3-(2,4,6-trimethoxyphenyl)prop-1-en-1-yl)quinolin-2(1H)-one]
10.6 ± 0.38	11.9 ± 0.44	10.8 ± 0.39	8.74 ± 0.63	–	–	–	–	COc1cc(OC)c(C(=O)/C=C/c2ccccn2)c(OC)c1 [B1, (E)-3-(pyridin-2-yl)-1-(2,4,6-trimethoxyphenyl)prop-2-en-1-one]
44.5 ± 1.05	46.3 ± 1.07	38.1 ± 1.45	51.6 ± 1.23	–	–	–	–	COc1cc(OC)c(C(=O)/C=C/c2ccc(-c3ccccc3)cc2)c(OC)c1 [B12, (E)-3-([1,1′-biphenyl]-4-yl)-1-(2,4,6-trimethoxyphenyl)prop-2-en-1-one]

The next lines start with the compound.

Compound	IC50 (A549; Homo sapiens, A549, 48 h) [µM]	IC50 (Hela; [1]) [µM]	IC50 (HepG2; Homo sapiens, HepG2, 48 h) [µM]	IC50 (MCF-7; [2]) [µM]	IC50 (A549; MTT, 48 h, A549) [µM]	IC50 (Hela; [3]) [µM]	IC50 (HepG2; MTT, 48 h, HepG2) [µM]	IC50 (MCF-7; [4]) [µM]
COc1cc(OC)c(C(=O)/C=C/C2=CSC(Br)=CC2)c(OC)c1 [B6, (E)-3-(6-bromo-4H-thiopyran-3-yl)-1-(2,4,6-trimethoxyphenyl)prop-2-en-1-one]	31.3 ± 0.63	18.9 ± 0.73	19.5 ± 0.59	26.3 ± 0.94	–	–	–	–
COc1cc(OC)c(C(=O)/C=C/c2ccc(OCc3cnc4ccccc4c3)cc2)c(OC)c1 [C9, (E)-3-(4-(quinolin-3-ylmethoxy)phenyl)-1-(2,4,6-trimethoxyphenyl)prop-2-en-1-one]	> 100	> 100	> 100	> 100	–	–	–	–
COc1cc(OC)c(C(=O)/C=C/c2ccc(OCc3cc4ccccc4[nH]c3=O)cc2)c(OC)c1 [C10, (E)-3-((4-(3-oxo-3-(2,4,6-trimethoxyphenyl)prop-1-en-1-yl)phenoxy)methyl)quinolin-2(1H)-one]	> 100	> 100	> 100	> 100	–	–	–	–
(E)-3-(3,4-dimethoxyphenyl)-1-(2,4,6-trimethoxyphenyl)prop-2-en-1-one [A3]	–	–	–	–	> 100	71.5 ± 1.54	35.4 ± 1.37	> 100
COc1cc(OC)c(C(=O)/C=C/c2ccc(OCc3ccccc3)cc2)c(OC)c1 [C4, (E)-3-(4-(benzyloxy)phenyl)-1-(2,4,6-trimethoxyphenyl)prop-2-en-1-one]	> 100	> 100	> 100	> 100	–	–	–	–
COc1cc(OC)c(C(=O)/C=C/c2ccc(-c3ccc(F)cc3)cc2)c(OC)c1 [B13, (E)-3-(4′-fluoro-[1,1′-biphenyl]-4-yl)-1-(2,4,6-trimethoxyphenyl)prop-2-en-1-one]	40.6 ± 1.51	30.5 ± 0.89	25.6 ± 0.77	35.3 ± 1.14	–	–	–	–
COc1cc(OC)c(C(=O)/C=C/c2ccc(OCC3CCCCC3)cc2)c(OC)c1 [C3, (E)-3-(4-(cyclohexylmethoxy)phenyl)-1-(2,4,6-trimethoxyphenyl)prop-2-en-1-one]	> 100	> 100	> 100	> 100	–	–	–	–
O=c1[nH]cc(F)c(=O)[nH]1 [5-Fu, 5-fluorouracil, reference compound]	43.5 ± 1.22	43.8 ± 1.53	45.4 ± 1.35	55.2 ± 1.92	–	–	–	–
COc1cc(OC)c(C(=O)/C=C/c2cn(C)c3ccccc23)c(OC)c1 [B11, (E)-3-(1-methyl-1H-indol-3-yl)-1-(2,4,6-trimethoxyphenyl)prop-2-en-1-one]	> 100	> 100	> 100	> 100	–	–	–	–
COc1cc(OC)c(C(=O)/C=C/c2cccc(Br)n2)c(OC)c1 [B2, (E)-3-(6-bromopyridin-2-yl)-1-(2,4,6-trimethoxyphenyl)prop-2-en-1-one]	9.36 ± 0.72	6.48 ± 0.33	7.12 ± 0.42	7.83 ± 0.45	–	–	–	–
COc1cc(OC)c(C(=O)/C=C/c2ccc(OCC3CCCC3)cc2)c(OC)c1 [C2, (E)-3-(4-(cyclopentylmethoxy)phenyl)-1-(2,4,6-trimethoxyphenyl)prop-2-en-1-one]	73.6 ± 1.17	22.6 ± 1.11	> 100	> 100	–	–	–	–
COc1cc(OC)c(C(=O)/C=C/c2ccc(Br)cc2)c(OC)c1 [B4, (E)-3-(4-bromophenyl)-1-(2,4,6-trimethoxyphenyl)prop-2-en-1-one]	19.8 ± 0.98	11.8 ± 0.86	13 ± 0.74	12.8 ± 0.64	–	–	–	–
COc1cc(OC)c(C(=O)/C=C/c2cnc3ccccc3c2)c(OC)c1 [B10, (E)-3-(quinolin-3-yl)-1-(2,4,6-trimethoxyphenyl)prop-2-en-1-one]	15.5 ± 0.74	13.6 ± 0.83	8.92 ± 0.68	10.7 ± 0.62	–	–	–	–
COc1cc(OC)c(C(=O)/C=C/c2coc(Br)c2)c(OC)c1 [B8, (E)-3-(5-bromofuran-3-yl)-1-(2,4,6-trimethoxyphenyl)prop-2-en-1-one]	> 100	49.8 ± 1.43	20.4 ± 1.52	48.8 ± 1.45	–	–	–	–
COc1cc(OC)c(C(=O)/C=C/c2ccc(OCc3ccccn3)cc2)c(OC)c1 [C6, (E)-3-(4-(pyridin-2-ylmethoxy)phenyl)-1-(2,4,6-trimethoxyphenyl)prop-2-en-1-one]	74.2 ± 1.84	> 100	> 100	> 100	–	–	–	–
(E)-3-(3,5-dimethoxyphenyl)-1-(2,4,6-trimethoxyphenyl)prop-2-en-1-one [A4]	–	–	–	–	71.2 ± 1.56	32.3 ± 1.31	33.4 ± 1.37	32.4 ± 1.29
COc1cc(OC)c(C(=O)/C=C/c2ccc(OCC3CC3)cc2)c(OC)c1 [C1, (E)-3-(4-(cyclopropylmethoxy)phenyl)-1-(2,4,6-trimethoxyphenyl)prop-2-en-1-one]	> 100	45.5 ± 1.59	39.3 ± 1.55	> 100	–	–	–	–
COc1cc(OC)c(C(=O)/C=C/c2ccoc2)c(OC)c1 [B7, (E)-3-(furan-3-yl)-1-(2,4,6-trimethoxyphenyl)prop-2-en-1-one]	47.4 ± 2.12	81.3 ± 2.44	61.4 ± 1.34	82.9 ± 2.65	–	–	–	–
COc1cc(OC)c(C(=O)/C=C/c2cc3ccccc3[nH]c2=O)c(OC)c1 [B14, (E)-3-(3-oxo-3-(2,4,6-trimethoxyphenyl)prop-1-en-1-yl)quinolin-2(1H)-one]	10.7 ± 0.74	35 ± 0.83	17.6 ± 0.74	7.92 ± 0.59	–	–	–	–
COc1cc(OC)c(C(=O)/C=C/c2ccsc2)c(OC)c1 [B5, (E)-3-(thiophen-3-yl)-1-(2,4,6-trimethoxyphenyl)prop-2-en-1-one]	46.9 ± 1.15	37.2 ± 1.22	19.9 ± 1.31	35.8 ± 1.35	–	–	–	–
COc1cc(OC)c(C(=O)/C=C/c2ccccc2)c(OC)c1 [A7, (E)-3-phenyl-1-(2,4,6-trimethoxyphenyl)prop-2-en-1-one]	59.4 ± 1.72	46.5 ± 1.33	47.1 ± 1.42	57.8 ± 1.45	–	–	–	–
